Where “and” joins values, the source holds several entries; their conditions need not be identical. Equal values may be shown once.
tested on: not listed separately; test: Dissociation constant, pKa of the compound; format: physicochemical; conditions: not given

SMILES	pKa
CC(C)c1cc(Nc2cccc(Cl)c2)ncc1C(=O)NCC1CCOCC1	6.02
O=C(NCC1CCOCC1)c1cnc(Nc2cccc(Cl)c2)cc1C(F)(F)F	2.63
O=C(NCC1CCCC1)c1cnc(Nc2ccc(Cl)cc2Cl)cc1C(F)(F)F	2.63
O=C(NCc1ccc(F)cc1)c1cnc(Nc2cccc(Br)c2)cc1C(F)(F)F	2.63
NC(=O)c1ccc(CNC(=O)c2cnc(Nc3cccc(Cl)c3)cc2C(F)(F)F)cc1	2.63
CC(C)c1cc(Nc2cccc(Cl)c2)ncc1C(=O)NC1CCOCC1	6.02
CC(C)c1cc(Nc2cccc(C(F)(F)F)c2F)ncc1C(=O)NCC1CCOCC1	6.02
CC(C)c1cc(Nc2cccc(Cl)c2)ncc1C(=O)NCC1CCCC1	6.02
Cc1cccc(Nc2cc(C(C)C)c(C(=O)NCC3CCC3)cn2)c1	6.02
CC(C)CNC(=O)c1cnc(Nc2cccc(Cl)c2)cc1C(C)C	6.02
O=C(NCC1CCOCC1)c1cnc(Nc2cccc(F)c2)cc1C(F)(F)F	2.63
Cc1cc(Cl)ccc1Nc1cc(C(F)(F)F)c(C(=O)NCC2CCOCC2)cn1	2.63
COc1ccc(Cl)cc1Nc1cc(C(F)(F)F)c(C(=O)NCC2CCC2)cn1	2.63
O=C(NCC1CCCCC1)c1cnc(Nc2cccc(Cl)c2)cc1C(F)(F)F	2.63
CCC(CC)CNC(=O)c1cnc(Nc2cccc(Cl)c2)cc1C(C)C	6.02
CC(C)c1cc(Nc2ccc(Cl)cc2Cl)ncc1C(=O)NCC1CCOCC1	6.02
CC(C)c1cc(Nc2cccc(Br)c2)ncc1C(=O)NCC1CCOCC1	6.02
Cc1cccc(Nc2cc(C(C)C)c(C(=O)NCC3CCOCC3)cn2)c1	6.02
CC(C)c1cc(Nc2cccc(C#N)c2)ncc1C(=O)NCC1CCOCC1	6.02
COc1cccc(Nc2cc(C(C)C)c(C(=O)NCC3CCOCC3)cn2)c1	6.02
CC(C)c1cc(Nc2cccc(Cl)c2)ncc1C(=O)NCC(C)(C)C	6.02
CC(C)c1cc(Nc2cccc(Cl)c2)ncc1C(=O)NCc1ccc(F)cc1	6.02
CC(C)c1cc(Nc2ccc(C#N)c(Cl)c2)ncc1C(=O)NCC1CCOCC1	6.02
COc1ccc(Cl)cc1Nc1cc(C(F)(F)F)c(C(=O)NCC2CCOCC2)cn1	2.63
O=C(NCC1CCOCC1)c1cnc(Nc2ccc(Cl)cc2Cl)cc1C(F)(F)F	2.63

tested on: Rattus norvegicus; test: Dose normalized AUC (0 to t) in rat at 30 mg/kg, po after 6 hrs; format: ADME, organism-based; design: time < 6 hr, dose 30 mg/kg, route oral; conditions: in vivo

SMILES	AUC [kg·min/L]
CC(C)(C)c1cc(Nc2ccc(Cl)cc2Cl)ncc1C(=O)NCC1CCOCC1	16
O=C(NCC1CCOCC1)c1cnc(Nc2cccc(Br)c2)cc1C1CC1	5
O=C(NCC1CCOCC1)c1cnc(Nc2ccc(Cl)cc2Cl)cc1C1CC1	15
O=C(NCC1CCOCC1)c1cnc(Nc2cccc(OC(F)(F)F)c2)cc1C1CC1	3

tested on: not listed separately; test: Volume of distribution in rat at 1 mg/kg, iv; format: ADME, organism-based; design: dose 1 mg/kg, route intravenous; conditions: in vivo

SMILES	Vd [L/kg]
O=C(NCC1CCOCC1)c1cnc(Nc2ccc(Cl)cc2Cl)cc1C1CC1	2.4

tested on: not listed separately; test: Oral bioavailability in rat at 3 mg/kg; format: ADME, organism-based; conditions: in vivo

SMILES	bioavailability [%]
O=C(NCC1CCOCC1)c1cnc(Nc2ccc(Cl)cc2Cl)cc1C1CC1	39

tested on: not listed separately; test: Clearance in rat at 1 mg/kg, iv; format: ADME, organism-based; design: dose 1 mg/kg, route intravenous; conditions: in vivo

SMILES	clearance
O=C(NCC1CCOCC1)c1cnc(Nc2ccc(Cl)cc2Cl)cc1C1CC1	14 mL/min/kg and 14 mL/min

tested on: not listed separately; test: Half life in rat at 1 mg/kg, iv; format: ADME, organism-based; design: dose 1 mg/kg, route intravenous; conditions: in vivo

SMILES	half-life [h]
O=C(NCC1CCOCC1)c1cnc(Nc2ccc(Cl)cc2Cl)cc1C1CC1	3.1

Reference: ChEMBL document CHEMBL1139246, “Pyridine-3-carboxamides as novel CB(2) agonists for analgesia” (Bioorg Med Chem Lett, 2009)
